# Measured values: PubChem BioAssay AID493040 (Abbott Labs, 2011)
# The source made the active and inactive calls. No rule for the calls is given here.
# Tests used:
# Test in all cases: PubChem AID 493040
# [1] = biological target: Rho-associated protein kinase 2 (Homo sapiens) (UniProt O75116); conditions: kinase panel binding, pKi; ROCK2
# [2] = biological target: Cyclin-dependent kinase 2 (Homo sapiens) (UniProt P24941); conditions: kinase panel binding, pKi; CDK2
# [3] = biological target: Serine/threonine-protein kinase Sgk2 (Homo sapiens) (UniProt Q9HBY8); conditions: kinase panel binding, pKi; SGK
# Chain of Serine/threonine-protein kinase Sgk2 (Homo sapiens) (Q9HBY8 whole entry, looked up): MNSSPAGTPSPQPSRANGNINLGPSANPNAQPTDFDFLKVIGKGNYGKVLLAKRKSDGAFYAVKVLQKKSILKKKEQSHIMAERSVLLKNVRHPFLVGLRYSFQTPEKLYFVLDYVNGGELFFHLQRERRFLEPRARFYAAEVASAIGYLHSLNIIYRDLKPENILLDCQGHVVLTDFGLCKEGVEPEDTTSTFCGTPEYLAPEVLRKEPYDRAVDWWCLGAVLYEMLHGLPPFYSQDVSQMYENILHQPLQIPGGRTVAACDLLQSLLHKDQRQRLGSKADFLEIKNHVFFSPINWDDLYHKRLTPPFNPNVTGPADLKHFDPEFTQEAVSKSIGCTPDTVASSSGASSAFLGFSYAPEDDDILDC
# [4] = biological target: Mitogen-activated protein kinase 14 (Homo sapiens) (UniProt Q16539); conditions: kinase panel binding, pKi; MAPK14
# Chain of Mitogen-activated protein kinase 14 (Homo sapiens) (Q16539 whole entry, looked up): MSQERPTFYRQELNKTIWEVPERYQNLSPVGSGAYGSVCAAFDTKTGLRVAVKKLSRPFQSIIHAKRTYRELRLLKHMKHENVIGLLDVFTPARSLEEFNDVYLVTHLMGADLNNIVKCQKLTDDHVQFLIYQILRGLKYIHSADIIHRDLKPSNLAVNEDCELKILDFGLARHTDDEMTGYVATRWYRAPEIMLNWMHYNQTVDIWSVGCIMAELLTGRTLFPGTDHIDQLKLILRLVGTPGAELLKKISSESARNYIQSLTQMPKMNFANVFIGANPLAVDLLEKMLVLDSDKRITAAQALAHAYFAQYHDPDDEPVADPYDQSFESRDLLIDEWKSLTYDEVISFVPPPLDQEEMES
# Chain of Rho-associated protein kinase 2 (Homo sapiens) (O75116 whole entry, looked up): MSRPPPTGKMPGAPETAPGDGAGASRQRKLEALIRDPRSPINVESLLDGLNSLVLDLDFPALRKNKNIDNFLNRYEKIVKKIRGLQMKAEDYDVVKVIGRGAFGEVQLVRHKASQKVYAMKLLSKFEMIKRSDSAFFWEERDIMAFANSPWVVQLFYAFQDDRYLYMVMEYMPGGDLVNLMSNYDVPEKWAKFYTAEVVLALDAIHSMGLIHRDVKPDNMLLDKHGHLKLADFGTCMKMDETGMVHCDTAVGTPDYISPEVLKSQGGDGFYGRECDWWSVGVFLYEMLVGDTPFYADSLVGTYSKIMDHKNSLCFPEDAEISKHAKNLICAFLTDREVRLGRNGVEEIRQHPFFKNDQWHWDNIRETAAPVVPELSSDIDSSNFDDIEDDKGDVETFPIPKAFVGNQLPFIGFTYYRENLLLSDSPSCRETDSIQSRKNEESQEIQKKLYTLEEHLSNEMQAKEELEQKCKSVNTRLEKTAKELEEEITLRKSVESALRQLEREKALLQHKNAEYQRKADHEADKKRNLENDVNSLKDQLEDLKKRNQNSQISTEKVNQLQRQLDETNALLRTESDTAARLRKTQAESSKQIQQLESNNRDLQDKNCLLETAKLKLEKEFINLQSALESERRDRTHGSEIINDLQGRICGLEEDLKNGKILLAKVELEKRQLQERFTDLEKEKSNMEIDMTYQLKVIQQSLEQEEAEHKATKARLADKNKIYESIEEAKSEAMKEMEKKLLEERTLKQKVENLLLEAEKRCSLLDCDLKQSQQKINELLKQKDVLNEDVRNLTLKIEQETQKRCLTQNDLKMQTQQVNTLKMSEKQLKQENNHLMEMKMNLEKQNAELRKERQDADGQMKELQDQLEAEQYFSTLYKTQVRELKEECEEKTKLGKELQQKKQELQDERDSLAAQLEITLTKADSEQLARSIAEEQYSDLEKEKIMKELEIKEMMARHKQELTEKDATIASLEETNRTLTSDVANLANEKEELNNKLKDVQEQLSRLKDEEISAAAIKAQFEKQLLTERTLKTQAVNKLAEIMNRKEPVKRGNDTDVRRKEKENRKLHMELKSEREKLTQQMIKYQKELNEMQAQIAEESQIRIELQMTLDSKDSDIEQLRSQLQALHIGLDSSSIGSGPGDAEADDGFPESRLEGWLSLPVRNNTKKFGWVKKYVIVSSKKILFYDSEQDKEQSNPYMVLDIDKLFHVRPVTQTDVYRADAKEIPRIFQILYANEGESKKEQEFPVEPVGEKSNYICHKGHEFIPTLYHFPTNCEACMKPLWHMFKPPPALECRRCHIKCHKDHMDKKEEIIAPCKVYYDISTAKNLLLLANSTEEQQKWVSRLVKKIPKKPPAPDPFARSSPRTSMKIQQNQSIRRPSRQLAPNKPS
Compound,Ki [1],Ki [2] [nM],Ki [3],Ki [4] [nM]
O=C(O)c1ccccc1Nc1ccnc(NCc2cccc(O)c2)n1,> 7940 nM (inactive),–,–,–
Cc1ccccc1-c1c(-c2ccc3n[nH]c(C)c3c2)nnn1Cc1ccccc1,–,3.98,–,–
Cn1cc(-c2ccccc2)c2nc(-c3ccncc3)cc(=O)n21,3160 nM,–,–,–
CCOC(=O)c1c(NC(=O)C2C(C)(C)C2(C)C)sc2cnccc12,–,1000,–,–
CCn1c(=C(C#N)C(=O)O)sc(=CNc2ccccc2)c1=O,–,–,3980 nM,–
Fc1ccc2c(c1)-c1[nH]ncc1CS2,–,20000,–,–
CC(C)(O)CNc1cc(-c2c[nH]c3ncccc23)cc(Cl)n1,15.8 nM,251,–,–
CC(C)(CO)CCCNc1cc(-c2c[nH]c3ncccc23)cc(Cl)n1,10 nM,100,–,–
COc1ccccc1C(=O)Nc1n[nH]c2ccc(-c3cn(Cc4ccccc4)nn3)cc12,> 7940 nM (inactive),251,–,–
CCNC(=O)c1[nH]nc(-c2cc(Cl)c(O)cc2O)c1-c1ccc(OC)cc1,2510 nM,6310,–,–
CCn1c(-c2nonc2N)nc2cnc(Oc3cccc(NC(=O)c4ccc(OCCN5CCOCC5)cc4)c3)cc21,–,794,200 nM,–
Oc1ccc(-c2nc(-c3ccc(F)cc3)c(-c3ccncc3)[nH]2)cc1,> 3980 nM (inactive),–,> 6310 nM (inactive),–
NC(=O)c1ccc2c(ccn2-c2cccc(Cl)c2)c1,2510 nM,–,–,–
CCCCNc1cc(-c2ccncc2)cc2[nH]nc(N)c12,63.1 nM,200,–,–
c1ccc(Cn2nnc(-c3ccc4[nH]ncc4c3)c2-c2ccccc2)cc1,–,63.1,–,–
Fc1cccc(-c2c[nH]c3ncccc23)c1,316 nM,1260,–,–
COCCNc1cc(-c2c[nH]c3ncccc23)cc(Cl)n1,5.01 nM,251,–,–
OCCCCNc1cc(-c2c[nH]c3ncccc23)cc(Cl)n1,15.8 nM,126,–,–
c1ccc(Cn2cc(-c3ccc4[nH]nc(-c5cn(Cc6ccccc6)nn5)c4c3)nn2)cc1,126 nM,5.01,–,–
C=CCNc1cc(-c2c[nH]c3ncccc23)cc(Cl)n1,12.6 nM,100,–,–
O=c1cc(-c2ccc(F)cc2)nc2c(-c3ccc(F)cc3)c[nH]n12,> 7940 nM (inactive),–,–,–
Nc1n[nH]c2ccc(-c3nnn(Cc4ccccc4)c3C3CC3)cc12,20 nM,79.4,–,–

Compound,Ki [1],Ki [2] [nM],Ki [3],Ki [4] [nM]
Cc1cccc(CNc2cc(-c3c[nH]c4ncccc34)ncn2)c1,12.6 nM,39.8,–,–
CC(C)(C)c1cc(NC(=O)C(=O)c2cccc3ccccc23)n(-c2ccc(OCCC(N)=O)cc2)n1,–,–,–,631
Cc1sc2[nH]c(=O)n3nc(-c4ccncc4)nc3c2c1C,3980 nM,–,–,–
c1cnc2[nH]cc(-c3ccnc(NCC4CCCCC4)n3)c2c1,6.31 nM,3.98,–,–
CCCCCCCCCCCCOc1ccc(N=C(N)N)cc1N=C(N)N,3160 nM,5010,> 10000 nM (inactive),–
O=C1CN=C(c2cccc(Cl)c2)c2c(sc3c2CCCC3)N1,–,7940,–,–
O=C(Nc1ccccc1)Nc1nccs1,–,20000,–,–
NC(=O)c1ccc2nc(-c3ccc([N+](=O)[O-])o3)cn2c1,–,–,–,3160
Nc1n[nH]c2ccc(-c3cc(Cc4ccccc4)no3)cc12,25.1 nM,200,–,–
CCOC(=O)c1cn(-c2ccc(O)cc2C)c2cc(-c3ccncc3)ccc2c1=O,31.6 nM,3980,> 10000 nM (inactive),–
NC(=O)c1ccc(Nc2ncnc3[nH]cc(-c4ccccc4)c23)cc1,251 nM,501,–,–
CC(C)CC(NC(=O)c1cccc(-n2nc(C(C)(C)C)cc2NC(=O)Nc2cccc3ccccc23)c1)C(N)=O (stereo not given),–,–,–,794
Nc1ccc2cc(NCCc3ccccc3)cc(Nc3ncccn3)c2n1,–,–,–,2510
Cc1cc(=O)[nH]c2n[nH]c(-c3cccc(C(F)(F)F)c3)c12,–,–,–,398
c1ccc(Cn2cc(-c3ccc4[nH]nc(-c5ccccc5)c4c3)nn2)cc1,63.1 nM,100,–,–
CS(=O)(=O)Nc1ccccc1-c1ccc2c(c1)Nc1ccccc1NC2=O,–,6310,–,–
OCCNc1cc(-c2c[nH]c3ncccc23)cc(Cl)n1,20 nM,316,–,–
O=S(=O)(Nc1ccccn1)c1ccc(N=Cc2c(O)[nH]c3ccc4ncsc4c23)cc1,–,–,15.8 nM,–
Cc1[nH]nc2ccc(-c3cncc(OCCNS(C)(=O)=O)c3)cc12,158 nM,316,–,–
CCCCNc1c(-c2ccc3[nH]ncc3c2)nc2ncccn12,63.1 nM,398,–,–
COCCN(CCOC)c1cc(-c2c[nH]c3ncccc23)cc(Cl)n1,39.8 nM,2000,–,–
CN(c1ccccc1-c1ccc2c(c1)Nc1ccccc1NC2=O)S(C)(=O)=O,–,2000,–,–
